Reference: PMC11258331 (Scientific Reports, 2024)
Marks after values point to notes of the source that are not given here.

How the values were obtained:
[1] = system: platelet aggregation induced by adenosine diphosphate (ADP); experiment: ADP (20 µM)-induced platelet aggregation, light transmission aggregometry; assay type: in vivo, human
Description: (§1) PD assessments were performed on Days 1 (≤ 24 h) and 5 (≤ 72 h) of each period (Supplementary Table 8); assessments included aPTT[18], FXIc[18], and bleeding time (assessed according to the PPD® Laboratories [Austin, TX] procedure where a blood pressure cuff, situated above the incision site, provided pressure at 40 mmHg and blood from the incision was wicked with filter paper every 30 s until cessation to record bleeding time). In addition, AA (1 mM), ADP) (20 µM)-, and collagen (5 μg/ml)-induced platelet aggregation assays were performed using light transmission aggregometry (PPD® Laboratories) and performed on Days 1 and 5 (≤ 24 h) for only Period 1.

[2] = system: platelet aggregation induced by collagen; experiment: Collagen (5 μg/ml)-induced platelet aggregation, light transmission aggregometry; assay type: in vivo, human
Description: as §1

[3] = system: arachidonic acid (AA)-induced platelet aggregation; experiment: AA (1 mM)-induced platelet aggregation, light transmission aggregometry; assay type: in vivo, human
Description: as §1

human carboxylesterase 1 = conditions: liver; cited from earlier work
healthy participants [4] = experiment: Adverse events and bleeding-related AEs by treatment, phase I DDI study;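 also: counts from medical review of adverse event and bleeding-related adverse event reports, collected at selected times across the dosing interval, single US site, randomised 1:1:1 to one study part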
Description: Participants underwent screening evaluations to determine eligibility within 35 days of study drug administration, and eligible participants were randomly assigned 1:1:1 to a single part of the study.
Safety assessments were performed at selected times throughout the dosing interval (Supplementary Table 7). The assessments were based on medical review of AE and bleeding-related AE reports, and the results of vital sign measurements, ECG measurements, physical examinations, and clinical laboratory tests.

[5] = Plasma pharmacokinetics (LC-MS/MS, noncompartmental; GMR by linear mixed-effects model); conditions: for AUC: AUC(TAU);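 as to all read-outs here: participants at one US clinical research site, randomized 1:1:1 to a single study part, with 90% CIs from a mixed-effects model on log-transformed PK parameters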
Description: The study (ClinicalTrials.gov Identifier: NCT03698513) was conducted at 1 clinical research center in the United States. […] Participants underwent screening evaluations to determine eligibility within 35 days of study drug administration, and eligible participants were randomly assigned 1:1:1 to a single part of the study.
All statistical analyses and calculations were performed using SAS® software (SAS Institute, Inc., Cary, North Carolina; version 9.3). All safety and plasma PK/PD data were summarized using descriptive statistics. Descriptive summaries were presented for continuous variables using number of subjects (N), mean, SD; median, minimum, and maximum. […] CIs were constructed using a linear mixed-effects model with treatment as a fixed effect and measurements within participants as repeated measures fitted to the log-transformed PK parameters.

[6] = system: activated partial thromboplastin time (aPTT); experiment: Activated partial thromboplastin time (aPTT); assay type: in vivo, human; conditions: postdose on Day 5
Description: as §1

healthy participants [7] = experiment: Bleeding time (PPD Laboratories procedure); assay type: in vivo, human; conditions: milvexian alone (Treatments B, D, G)
Description: as §1

[8] = cited from earlier work
[9] = system: cytochrome P450 (CYP)–3A4; conditions: spray-dried dispersion formulation studies; cited from earlier work
[10] = system: patients who underwent knee arthroplasty; conditions: postoperative treatment, 25 mg QD to 200 mg BID; cited from earlier work
[11] = system: patients with acute ischemic stroke or high risk transient ischemic attack; conditions: 25 mg QD or 25, 50, 100, 200 mg BID on background of aspirin and clopidogrel; cited from earlier work
[12] = Day 1, plasma, Treatment F (milvexian + clopidogrel), Part 2
[13] = human, plasma, oral, geometric mean (90% CI), Day 1, plasma, Treatment A (milvexian + aspirin + clopidogrel), Part 1
[14] = milvexian alone (Treatments B, D, G), Days 1 and 5
[15] = Day 1, Treatment A vs Treatment B (milvexian alone)
[16] = human, plasma, oral, geometric mean [n] (90% CI), Day 5, plasma, Treatment D (milvexian alone), Part 2

COC(=O)[C@H](c1ccccc1Cl)N1CCc2sccc2C1 [Clopidogrel]
Inhibition of ADP-induced aggregation compared with baseline ([1]; drug alone (Treatment E or H)): ~ 50%
Inhibition of collagen-induced aggregation compared with baseline ([2]; drug alone (Treatment E or H)): < 10%
Inhibition of AA-induced aggregation compared with baseline ([3]; drug alone (Treatment E or H)): ~ 60%
Share first-passed hydrolyzed to clopidogrel acid (human carboxylesterase 1): ~ 85 % of absorbed drug
Anal fissure hemorrhage (healthy participants [4]; Part 2 (Treatments D-F)): 0 n (%)
Contusion (healthy participants [4]; Part 2 (Treatments D-F)): 1 (2.8)^†† n (%)
Deaths (healthy participants [4]; Part 2 (Treatments D-F)): 0 n (%)
Discontinuations due to AEs (healthy participants [4]; Part 2 (Treatments D-F)): 1 (2.8)^‖ n (%)
Epistaxis (healthy participants [4]; Part 2 (Treatments D-F)): 0 n (%)
Gingival bleeding (healthy participants [4]; Part 2 (Treatments D-F)): 0 n (%)
Serious AEs (healthy participants [4]; Part 2 (Treatments D-F)): 0 n (%)
Total participants with an AE (healthy participants [4]; Part 2 (Treatments D-F)): 6 (16.7) n (%)
Total participants with bleeding event(s) (healthy participants [4]; Part 2 (Treatments D-F)): 1 (2.8) n (%)
Vessel puncture site bruise (healthy participants [4]; Part 2 (Treatments D-F)): 0 n (%)
Events of contusion reported by a single participant (healthy participants [4]; bleeding AE): 1 events
Reduction of Cmax ([5]; Day 1, Treatment A vs Treatment C (aspirin and clopidogrel without milvexian)): 14%
Reduction of Cmax ([5]; Day 1, Treatment F (with milvexian) vs Treatment E (clopidogrel alone)): 9.1%
Cmax, geometric mean (90% CI) [5, 12]: 4.05 (3.09, 5.31) ng/mL
Cmax, geometric mean [n] (90% CI) ([5]; Day 5, plasma, Treatment C (placebo + aspirin + clopidogrel), Part 1): 1.15 (0.898, 1.46) ng/mL
Cmax [5, 13]: 3.29 ng/mL
Cmax ([5]; human, plasma, oral, geometric mean (90% CI), Day 1, plasma, Treatment C (placebo + aspirin + clopidogrel), Part 1): 3.83 ng/mL
Cmax ([5]; human, plasma, oral, geometric mean (90% CI), Day 1, plasma, Treatment E (placebo + clopidogrel), Part 2): 4.45 ng/mL
half-life ([5]; human, plasma, oral, Mean T1/2, with (Treatment F) and without (Treatment E) milvexian, Days 1 and 5): 1 to 2 h
Tmax ([5]; human, plasma, oral, Median Tmax, Day 1, Treatments F and E): 1 to 1.5 h
Tmax ([5]; human, plasma, oral, Median Tmax, Day 5, Treatments F and E): 0.5 to 1 h
Tmax ([5]; human, plasma, oral, Tmax, median [n] (range), Day 5, plasma, Treatment C (placebo + aspirin + clopidogrel), Part 1): 0.5 h

C[C@@H]1CCC[C@H](n2cnc(-c3cc(Cl)ccc3-n3cc(Cl)nn3)cc2=O)c2cc(ccn2)-c2c(cnn2C(F)F)NC1=O [Milvexian]
Time by which aPTT returned to baseline [6]: ≤ 72 h
Effect on bleeding time (healthy participants [7]): did not increase bleeding times
Change of ADP-induced platelet aggregation compared with baseline [1, 14]: < 10%
Change of collagen-induced platelet aggregation compared with baseline [2, 14]: < 10%
Effect on AA-induced platelet aggregation ([3]; milvexian alone (Treatments B, D, G), not consistent, no correlation with milvexian concentration): a decrease in arachidonic acid (AA)-induced platelet aggregation was observed
Urine excretion [8]: < 20%
Route of metabolism [9]: predominantly metabolized by cytochrome P450 (CYP)–3A4
Effect on incidence of venous thromboembolism [10]: reduced the incidence of venous thromboembolism in a dose-dependent manner
Dose response for composite of symptomatic ischemic stroke or covert brain infarction [11]: did not produce a statistically significant dose response
Anal fissure hemorrhage (healthy participants [4]; Part 2 (Treatments D-F)): 0 n (%)
Contusion (healthy participants [4]; Part 2 (Treatments D-F)): 0 n (%)
Deaths (healthy participants [4]; Part 2 (Treatments D-F)): 0 n (%)
Discontinuations due to AEs (healthy participants [4]; Part 2 (Treatments D-F)): 1 (2.8)^§ n (%)
Epistaxis (healthy participants [4]; Part 2 (Treatments D-F)): 0 n (%)
Gingival bleeding (healthy participants [4]; Part 2 (Treatments D-F)): 0 n (%)
Serious AEs (healthy participants [4]; Part 2 (Treatments D-F)): 0 n (%)
Total participants with an AE (healthy participants [4]; Part 2 (Treatments D-F)): 5 (13.9) n (%)
Total participants with bleeding event(s) (healthy participants [4]; Part 2 (Treatments D-F)): 0 n (%)
Vessel puncture site bruise (healthy participants [4]; Part 2 (Treatments D-F)): 0 n (%)
Anal fissure hemorrhage (healthy participants [4]; Part 3 (Treatments G-I)): 1 (2.7) n (%)
Contusion (healthy participants [4]; Part 3 (Treatments G-I)): 0 n (%)
Deaths (healthy participants [4]; Part 3 (Treatments G-I)): 0 n (%)
Discontinuations due to AEs (healthy participants [4]; Part 3 (Treatments G-I)): 1 (2.7)^¶ n (%)
Epistaxis (healthy participants [4]; Part 3 (Treatments G-I)): 0 n (%)
Gingival bleeding (healthy participants [4]; Part 3 (Treatments G-I)): 0 n (%)
Serious AEs (healthy participants [4]; Part 3 (Treatments G-I)): 0 n (%)
Total participants with an AE (healthy participants [4]; Part 3 (Treatments G-I)): 6 (16.2) n (%)
Total participants with bleeding event(s) (healthy participants [4]; Part 3 (Treatments G-I)): 1 (2.7) n (%)
Vessel puncture site bruise (healthy participants [4]; Part 3 (Treatments G-I)): 0 n (%)
Events of anal fissure hemorrhage reported by a single participant (healthy participants [4]; bleeding AE, Part 3, Treatment G): 1 events
Reduction of AUC(TAU) [5, 15]: 15%
Reduction of Cmax [5, 15]: 17%
Tmax, median (range) ([5]; Day 1, plasma, Treatment A (milvexian + aspirin + clopidogrel), Part 1): 4.00 (2.13, 6.02) h
Tmax, median (range) ([5]; Day 1, plasma, Treatment B (milvexian alone), Part 1): 3.00 (2.00, 4.13) h
Tmax, median (range) ([5]; Day 1, plasma, Treatment D (milvexian alone), Part 2): 4.00 (2.00, 6.00) h
AUC(TAU), geometric mean [n] (90% CI) [5, 12]: 5042 (4621, 5503) ng•h/mL
Tmax, median (range) [5, 12]: 4.00 (2.00, 4.13) h
Tmax, median (range) ([5]; Day 1, plasma, Treatment G (milvexian alone), Part 3): 4.00 (2.00, 6.02) h
Tmax, median (range) ([5]; Day 1, plasma, Treatment I (milvexian + aspirin), Part 3): 4.00 (2.00, 6.03) h
Tmax, median [n] (range) ([5]; Day 5, plasma, Treatment B (milvexian alone), Part 1): 3.00 (0.00, 6.00) h
Tmax, median [n] (range) ([5]; Day 5, plasma, Treatment F (milvexian + clopidogrel), Part 2): 4.00 (1.00, 6.00) h
AUC ([5]; human, plasma, oral, geometric mean [n] (90% CI), Day 1, plasma, Treatment B (milvexian alone), Part 1): 5610 ng·h/mL
AUC [5, 16]: 22000 ng·h/mL
Cmax [5, 13]: 718 ng/mL
Cmax ([5]; human, plasma, oral, geometric mean (90% CI), Day 1, plasma, Treatment B (milvexian alone), Part 1): 868 ng/mL
Cmax ([5]; human, plasma, oral, geometric mean (90% CI), Day 1, plasma, Treatment D (milvexian alone), Part 2): 898 ng/mL
Cmax ([5]; human, plasma, oral, geometric mean (90% CI), Day 1, plasma, Treatment F (milvexian + clopidogrel), Part 2): 817 ng/mL
Cmax ([5]; human, plasma, oral, geometric mean (90% CI), Day 1, plasma, Treatment G (milvexian alone), Part 3): 867 ng/mL
Cmax ([5]; human, plasma, oral, geometric mean (90% CI), Day 1, plasma, Treatment I (milvexian + aspirin), Part 3): 850 ng/mL
Cmax ([5]; human, plasma, oral, geometric mean [n] (90% CI), Day 5, plasma, Treatment B (milvexian alone), Part 1): 2690 ng/mL
Cmax [5, 16]: 2670 ng/mL
Cmax ([5]; human, plasma, oral, geometric mean [n] (90% CI), Day 5, plasma, Treatment F (milvexian + clopidogrel), Part 2): 2500 ng/mL
Tmax ([5]; human, plasma, oral, Median Tmax, across Treatments A and B): 3 to 4 h
Tmax ([5]; human, plasma, oral, Tmax, median [n] (range), Day 5, plasma, Treatment D (milvexian alone), Part 2): 3.05 h
